Laboratory results: patent publication US8063225B2, “Tricyclic compound derivatives useful in the treatment of neoplastic diseases, inflammatory disorders and immunomodulatory disorders” (Chembridge Corporation, priority 2006, dated 2011)

What was measured:
InsR = biological target: T1, InsR (Homo sapiens, UniProt P06213); assay: Tyrosine kinase assay (Kinase-Glo or AlphaScreen), InsR; conditions: biochemical tyrosine kinase assay
T1 construct: 6×His- or GST-tagged kinase domain fragments of the corresponding RTKs expressed in baculovirus system; host or cells: baculovirus system
In short: (§1)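 Luminescence of remaining ATP (Kinase-Glo) or anti-phosphotyrosine AlphaScreen proximity signal served as read-out. Reactions held purified tagged kinase domain, poly(Glu-Tyr) substrate and 10 μM ATP at pH 7.5. IC50 values came from non-linear regression fits.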

Alk = biological target: T2, Alk (Homo sapiens, UniProt Q9UM73); assay: Tyrosine kinase assay (Kinase-Glo or AlphaScreen), Alk; conditions: biochemical tyrosine kinase assay
T2 construct: 6×His- or GST-tagged kinase domain fragments of the corresponding RTKs expressed in baculovirus system; host or cells: baculovirus system
In short: as §1

Jak2 = biological target: T3, Jak2 (Homo sapiens, UniProt O60674); assay: Tyrosine kinase assay (Kinase-Glo or AlphaScreen), Jak2; conditions: biochemical tyrosine kinase assay
T3 construct: 6×His- or GST-tagged kinase domain fragments of the corresponding RTKs expressed in baculovirus system; host or cells: baculovirus system
In short: as §1

H929 (multiple myeloma) = assay: Cell proliferation inhibition, Cell Titer-Glo, H929; assay type: cell-based; conditions: Homo sapiens, NCI-H929; cell proliferation assay, H929 cells
In short: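 Cells seeded at 2500-5000 per well with serially diluted compound for typically 3 days. Viable cells measured by ATP luminescence (Cell Titer-Glo); IC50 from proliferation-inhibition curves.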

Ba/F3 = assay: Cell proliferation inhibition, Cell Titer-Glo, Ba/F3; assay type: cell-based; conditions: Mus musculus, BaF3; cell proliferation assay, Ba/F3 cells
In short: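 Ba/F3 cells were seeded at 2500-5000 cells per well in white, clear-bottomed 384-well culture plates and exposed to serial dilutions of test compounds for 3 days. Cell Titer-Glo Luminescent Cell Viability Assay (Promega) reagent, which measures total ATP as an indicator of metabolic activity, was added. Luminescence was read on a multiwell plate reader to derive IC50 values for inhibition of proliferation.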

Karpas-299 = assay: Cell proliferation inhibition, Cell Titer-Glo, Karpas-299; assay type: cell-based; conditions: Homo sapiens; cell proliferation assay, Karpas-299 cells
In short: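 Karpas 299 cells were seeded into white, clear-bottomed 384-well culture plates at 2500-5000 cells per well and exposed to serial dilutions of test compounds for about 3 days. Viable cell numbers were then measured with the Cell Titer-Glo Luminescent Cell Viability Assay (Promega), which detects total ATP, and IC50 values for proliferation inhibition were derived.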

K562 = assay: Cell proliferation inhibition, Cell Titer-Glo, K562; assay type: cell-based; conditions: Homo sapiens; cell proliferation assay, K562 cells
In short: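 K562 cells were seeded at 2500-5000 cells per well in white, clear-bottomed 384-well culture plates and treated with dilutions of test compounds for typically 3 days. Viable cells were quantified with the Cell Titer-Glo Luminescent Cell Viability Assay (Promega), which measures total ATP, read on a luminescence plate reader to derive IC50 values for proliferation inhibition.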

T1 sequence (P06213 1023-1298 limits assumed, species assumed): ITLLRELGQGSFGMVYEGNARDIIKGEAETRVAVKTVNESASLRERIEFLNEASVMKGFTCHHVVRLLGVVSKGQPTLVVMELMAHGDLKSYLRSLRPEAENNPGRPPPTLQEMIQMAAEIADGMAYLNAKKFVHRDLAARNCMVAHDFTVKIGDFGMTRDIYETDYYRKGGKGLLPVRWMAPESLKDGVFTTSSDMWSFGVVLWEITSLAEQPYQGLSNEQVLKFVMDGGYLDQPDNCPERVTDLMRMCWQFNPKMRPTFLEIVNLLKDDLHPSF
T2 sequence (Q9UM73 1116-1392 limits assumed, species assumed): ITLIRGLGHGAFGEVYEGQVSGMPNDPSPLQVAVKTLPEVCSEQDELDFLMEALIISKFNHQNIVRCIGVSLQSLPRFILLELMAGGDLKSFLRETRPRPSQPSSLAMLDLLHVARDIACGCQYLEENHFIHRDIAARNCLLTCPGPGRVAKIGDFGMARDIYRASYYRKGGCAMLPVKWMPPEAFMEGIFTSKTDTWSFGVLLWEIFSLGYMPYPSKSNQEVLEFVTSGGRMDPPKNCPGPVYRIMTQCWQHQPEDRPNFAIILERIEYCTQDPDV
T3 sequence (O60674 849-1124 limits assumed, species assumed): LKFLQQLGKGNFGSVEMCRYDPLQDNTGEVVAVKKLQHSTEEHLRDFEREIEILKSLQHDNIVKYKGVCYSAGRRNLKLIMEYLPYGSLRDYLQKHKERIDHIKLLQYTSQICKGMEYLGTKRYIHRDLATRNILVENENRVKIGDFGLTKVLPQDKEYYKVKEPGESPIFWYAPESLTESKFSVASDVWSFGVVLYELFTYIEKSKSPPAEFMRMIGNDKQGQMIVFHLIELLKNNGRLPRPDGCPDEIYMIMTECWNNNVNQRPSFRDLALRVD

IC50 (InsR) [µM] | IC50 (Alk) [µM] | IC50 (Jak2) [µM] | IC50 (H929 (multiple myeloma)) [µM] | IC50 (Ba/F3) [µM] | IC50 (Karpas-299) [µM] | IC50 (K562) [µM] | SMILES
< 0.5 | 0.5 to 5 | 0.5 to 5 | 5 to 15 | > 15 | > 15 | > 15 | Cc1ccc(OC[C@@H](O)CNc2cc[nH]c(=O)c2-c2nc3cc4c(cc3[nH]2)C(=O)N([C@@H]2CCN(C)C2)C4=O)c(C)c1 [compound 107]
< 0.5 | 0.5 to 5 | 0.5 to 5 | 0.5 to 5 | – | – | 5 to 15 | CN1CCC(N2C(=O)c3cc4nc(-c5c(NC[C@@H](O)c6cccc(Cl)c6)cc[nH]c5=O)[nH]c4cc3C2=O)CC1 [compound 1]
5 to 15 | > 15 | 5 to 15 | – | > 15 | > 15 | > 15 | Cc1cc(C)n(C[C@H](O)CNc2cc[nH]c(=O)c2-c2nc3cc4c(cc3[nH]2)C(=O)N(C2CCN(C)CC2)C4=O)n1 [compound 92]
> 15 | > 15 | > 15 | – | 5 to 15 | 5 to 15 | 0.5 to 5 | O=C1c2cc3nc(-c4c(NC[C@@H](O)c5cccc(Cl)c5)cc[nH]c4=O)[nH]c3cc2C(=O)N1C[C@@H]1CCCO1 [compound 29]
0.5 to 5 | 5 to 15 | 0.5 to 5 | – | > 15 | > 15 | > 15 | Cc1ccc(OC[C@H](O)CNc2cc[nH]c(=O)c2-c2nc3cc4c(cc3[nH]2)C(=O)N(C2CCN(C)CC2)C4=O)cc1Cl [compound 99]
< 0.5 | 0.5 to 5 | < 0.5 | < 0.5 | – | – | > 15 | CCc1cc(C)ccc1OC[C@H](O)CNc1cc[nH]c(=O)c1-c1nc2cc3c(cc2[nH]1)CN(C1CCN(C)CC1)C3=O [compound 141]
< 0.5 | 0.5 to 5 | < 0.5 | 0.5 to 5 | – | – | > 15 | Cc1ccc(OC[C@H](O)CNc2cc[nH]c(=O)c2-c2nc3cc4c(cc3[nH]2)CN(C2CCN(C)CC2)C4=O)c(C)c1 [compound 130]
0.5 to 5 | < 0.5 | 0.5 to 5 | 5 to 15 | – | – | – | CCN1CCC(N2C(=O)c3cc4nc(-c5c(NC[C@@H](O)COc6ccc(C)cc6C)cc[nH]c5=O)[nH]c4cc3C2=O)CC1 [compound 143]
< 0.5 | 0.5 to 5 | 0.5 to 5 | 0.5 to 5 | – | – | > 15 | Cc1ccc(OC[C@H](O)CNc2cc[nH]c(=O)c2-c2nc3c(C)c4c(cc3[nH]2)C(=O)N(C2CCN(C)CC2)C4)c(C)c1 [compound 139]
0.5 to 5 | 0.5 to 5 | 0.5 to 5 | 5 to 15 | – | – | – | COc1cccc(OCC(O)CNc2cc[nH]c(=O)c2-c2nc3cc4c(cc3[nH]2)C(=O)N(C2CCN(C)CC2)C4=O)c1 (stereo not shown) [compound 6]

More lines, now with the values behind:

SMILES | IC50 (InsR) [µM] | IC50 (Alk) [µM] | IC50 (Jak2) [µM] | IC50 (H929 (multiple myeloma)) [µM] | IC50 (Ba/F3) [µM] | IC50 (Karpas-299) [µM] | IC50 (K562) [µM]
CN1CCC(N2C(=O)c3cc4nc(-c5c(NC[C@@H](O)COc6ccc7ccccc7c6)cc[nH]c5=O)[nH]c4cc3C2=O)CC1 [compound 88] | 0.5 to 5 | 0.5 to 5 | 0.5 to 5 | 5 to 15 | 5 to 15 | 5 to 15 | 5 to 15
Cc1ccc(OCC(O)CNc2cc[nH]c(=O)c2-c2nc3cc4c(cc3[nH]2)C(=O)N(CC2CCN(CCO)CC2)C4=O)c(C)c1 (stereo not shown) [compound 37] | < 0.5 | 5 to 15 | 0.5 to 5 | 0.5 to 5 | > 15 | > 15 | > 15
O=C1c2cc3nc(-c4c(NC[C@@H](O)c5cccc(Cl)c5)cc[nH]c4=O)[nH]c3cc2C(=O)N1[C@@H]1CN2CCC1CC2 [compound 33] | < 0.5 | 0.5 to 5 | 0.5 to 5 | – | > 15 | > 15 | 0.5 to 5
Cc1ccc(Cl)c(C)c1OC[C@H](O)CNc1cc[nH]c(=O)c1-c1nc2cc3c(cc2[nH]1)C(=O)N(C1CCN(C)CC1)C3=O [compound 111] | 0.5 to 5 | 0.5 to 5 | 0.5 to 5 | – | 5 to 15 | 0.5 to 5 | > 15
Cc1cc(C)c(OC[C@H](O)CNc2cc[nH]c(=O)c2-c2nc3cc4c(cc3[nH]2)C(=O)N(C2CCN(C)CC2)C4=O)cc1Cl [compound 108] | 0.5 to 5 | 0.5 to 5 | 0.5 to 5 | – | > 15 | 5 to 15 | –
Cc1ccc(OC[C@H](O)CNc2cc[nH]c(=O)c2-c2nc3c(C)c4c(cc3[nH]2)CN(C2CCN(C)CC2)C4=O)c(C)c1 [compound 140] | < 0.5 | 0.5 to 5 | < 0.5 | < 0.5 | – | – | 5 to 15
Cc1ccc(OC[C@H](O)CNc2cc[nH]c(=O)c2-c2nc3cc4c(c(C)c3[nH]2)CN(C2CCN(C)CC2)C4=O)c(C)c1 [compound 132] | < 0.5 | 0.5 to 5 | < 0.5 | < 0.5 | – | – | > 15
CCN1CCC(N2Cc3cc4nc(-c5c(NC[C@@H](O)COc6ccc(C)cc6C)cc[nH]c5=O)[nH]c4cc3C2=O)CC1 [compound 144] | 0.5 to 5 | < 0.5 | < 0.5 | 0.5 to 5 | – | – | > 15
CN1CCC(N2C(=O)c3cc4nc(-c5c(N[C@H](CO)Cc6c[nH]cn6)cc[nH]c5=O)[nH]c4cc3C2=O)CC1 [compound 2] | > 15 | > 15 | > 15 | – | > 15 | 5 to 15 | 5 to 15
Cc1ccc(OCC(O)CNc2cc[nH]c(=O)c2-c2nc3cc4c(cc3[nH]2)C(=O)N(C2CCN(C)CC2)C4=O)c(C)c1 (stereo not shown) [compound 15] | < 0.5 | 5 to 15 | 0.5 to 5 | 0.5 to 5 | – | – | 0.5 to 5
Cc1ccc(OC[C@@H](O)CNc2cc[nH]c(=O)c2-c2nc3cc4c(cc3[nH]2)C(=O)N(C2CCN(C)CC2)C4=O)c(C)c1 [compound 64] | 0.5 to 5 | 5 to 15 | 0.5 to 5 | – | 5 to 15 | > 15 | 5 to 15
O=C1c2cc3nc(-c4c(NC[C@@H](O)c5cccc(Cl)c5)cc[nH]c4=O)[nH]c3cc2C(=O)N1CCc1ccncc1 [compound 28] | 5 to 15 | 5 to 15 | 5 to 15 | – | > 15 | > 15 | > 15
Cc1ccc(OC[C@H](O)CNc2cc[nH]c(=O)c2-c2nc3cc4c(cc3[nH]2)C(=O)N(C2CCNCC2)C4=O)c(C)c1 [compound 142] | < 0.5 | 0.5 to 5 | 0.5 to 5 | – | – | – | 5 to 15
CC(C)(CO)CN1C(=O)c2cc3nc(-c4c(NC[C@@H](O)c5cccc(Cl)c5)cc[nH]c4=O)[nH]c3cc2C1=O [compound 26] | 5 to 15 | > 15 | 0.5 to 5 | – | – | – | 5 to 15
